Experiment [1] has as its system Salmonella Typhi WT vs phoP-, polymyxin IC50 shift, OD600 24 h. The experiment in a line: compound effect on polymyxin resistance, Typhi, OD600 (AID 2612).
Experiment in experiment [2]: as above
The settings on record: Salmonella Typhi WT vs phoP-, polymyxin IC50 shift, OD600 24 h, at 150 µM; for polymyxin IC50 shift difference (WT - phoP-): stronger effect = higher value; for IC50 shift: measured here: polymyxin IC50 shift.

The source made the active and inactive calls. The rule behind the calls is not given here.

Consider `CCn1cc(C(=O)O)c(=O)c2cc(F)c(N3CCN(C(=S)NC(=O)c4ccccc4Cl)CC3)cc21`, for which the IC50 – broadly, the point on the concentration scale where inhibition reaches its midpoint – in experiment [1] (WT polymyxin IC50 at 150 uM) came to 3.45 µM; in experiment [1] (phoP- polymyxin IC50 at 150 uM) it was 0.0339 µM. Also, in experiment [2], the polymyxin IC50 shift difference (WT - phoP-) is -3.77 (inactive). Moreover, the figures for the IC50 shift in experiment [2] (WT strain) and in experiment [2] (phoP- strain) were -1.35 and 2.42, respectively.
Take `Cc1ccc(Nc2cc(C)c3c(O)cccc3n2)cc1C`: the IC50 in experiment [1] (phoP- polymyxin IC50 at 150 uM) came to 0.893 µM. The polymyxin IC50 shift difference (WT - phoP-) in experiment [2] was 0.62 (inactive). Also, the IC50 shift in experiment [2] (WT strain) stood at 2.64; in experiment [2] (phoP- strain), 2.02.
`COc1c(N2CCN(C(=S)NCc3ccccc3)C(C)C2)c(F)cc2c(=O)c(C(=O)O)cn(C3CC3)c12` (centres undefined): the IC50 in experiment [1] (WT polymyxin IC50 at 150 uM) came to 7.25 µM; in experiment [1] (phoP- polymyxin IC50 at 150 uM), 3.83 µM. The polymyxin IC50 shift difference (WT - phoP-) in experiment [2] was -3.42 (inactive). Further, the IC50 shift in experiment [2] (WT strain) was -4.5; in experiment [2] (phoP- strain), -1.08.
The corresponding values for `O=C(Nc1ccc(Cl)cc1)N1CCCN(Cc2ccccc2F)C1` are 14.9 µM, 3.07 µM, -11.9 (inactive), -12.1 and -0.267.
Consider `S=C(NCc1ccc(Cl)cc1)Nc1ccncc1`, for which the IC50 is 20 µM in experiment [1], 0.669 µM in experiment [1] (WT polymyxin IC50 at 150 uM) and 28.8 µM in experiment [1] (phoP- polymyxin IC50 at 150 uM). Further, the IC50 shift in experiment [2] (WT strain) is -0.561; in experiment [2] (phoP- strain), -25.9.
`O=C1C2=C(Nc3ccccc3SC2c2ccco2)c2ccccc21` (centres undefined): the IC50 in experiment [1] was 4 µM; in experiment [1] (WT polymyxin IC50 at 150 uM) it was 1.47 µM; in experiment [1] (phoP- polymyxin IC50 at 150 uM) it was 27.4 µM. In addition, the IC50 shift in experiment [2] (WT strain) was 1.28; in experiment [2] (phoP- strain), -24.4.

(Values after PubChem BioAssay AID2612 (Southern Research Specialized Biocontainment Screening …, 2010).)
